This is an account of results in PubChem BioAssay AID743443 (The Scripps Research Institute Molecular Screening Center, 2014).

pIC50: −log10 of the molar value. The source made the active and inactive calls. No rule for the calls is given here. Bounds are passed on as bounds.

Broadly, the IC50 is the concentration at which inhibition is half-maximal. One may read the pIC50 as −log10 of the IC50, conventionally taken in molar units.

This assay deals with Sphingosine 1-phosphate receptor 5 (Homo sapiens) (UniProt Q9H228). In words: S1P5 receptor antagonists, late-stage follow-up, selectivity assay for S1PR3 antagonist project, cell-based, FRET, dose response (AID 743443).
Chain of Sphingosine 1-phosphate receptor 5 (Homo sapiens) (Q9H228 whole entry, looked up): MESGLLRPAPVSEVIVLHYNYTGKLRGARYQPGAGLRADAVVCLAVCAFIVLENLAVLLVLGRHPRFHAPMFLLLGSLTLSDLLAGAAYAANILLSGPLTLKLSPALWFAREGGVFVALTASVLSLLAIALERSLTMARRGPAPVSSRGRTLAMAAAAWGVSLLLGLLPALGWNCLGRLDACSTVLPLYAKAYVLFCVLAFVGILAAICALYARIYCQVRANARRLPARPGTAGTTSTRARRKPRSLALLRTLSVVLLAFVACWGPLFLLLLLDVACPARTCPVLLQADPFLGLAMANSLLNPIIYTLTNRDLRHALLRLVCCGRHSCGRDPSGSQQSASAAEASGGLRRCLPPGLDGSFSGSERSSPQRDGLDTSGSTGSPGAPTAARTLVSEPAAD

`Cc1ccc(C(=O)NC(c2ccccc2)c2nc(-c3ccccc3)no2)cc1` (stereo not given): the IC50 is > 28.2 µM (inactive).
With `O=C(NC(c1ccccc1)c1nc(-c2ccccc2)no1)c1cccc(Br)c1` (stereo not given), the IC50 was > 28.2 µM (inactive).
The same measure, in the same setting: under `O=C(NC(c1ccc(Cl)cc1)c1nc(-c2ccccc2)no1)c1cccc(Br)c1` (stereo not given) stands “inactive”; under `O=C(NC(c1cccc(Cl)c1)c1nc(-c2ccccc2)no1)c1cc(Cl)cc(Cl)c1` (stereo not given), > 28.2 µM (inactive); under `CCc1ccc(C(NC(=O)c2cccc(Cl)c2)c2nc(-c3ccccc3)no2)cc1` (stereo not given), > 28.2 µM (inactive).
Same read-out and setting: to `O=C(NC(c1ccc(Cl)cc1)c1nc(-c2ccccc2)no1)c1ccc(Cl)c(Cl)c1` (stereo not given) belongs > 28.2 µM (inactive); to `O=C(NC(c1ccccc1)c1nc(-c2ccccc2)no1)c1ccc(Cl)cc1` (stereo not given), > 28.2 µM (inactive).
Still for that read-out and setting: to `O=C(NC(Cc1ccccc1)c1nc(-c2ccccc2)no1)c1cccc(Cl)c1` (stereo not given) belongs “inactive”; to `O=C(NC(c1ccc(Cl)cc1)c1nc(-c2ccccc2)no1)c1ccc(Cl)c(Br)c1` (stereo not given), > 28.2 µM (inactive).
`O=C(c1cccc(Cl)c1)N(CCO)C(c1ccc(Cl)c(Cl)c1)c1nc(-c2ccccc2)no1` (stereo not given): the pIC50 is 5.00.
In the case of `O=C(NC(c1ccc(Cl)cc1)c1nc(-c2ccccn2)no1)c1cccc(Cl)c1` (stereo not given), the IC50 is > 28.2 µM (inactive).
On the same count and under the same terms, under `O=C(NC(c1ccccc1)c1nc(-c2ccccc2)no1)c1cccc(Cl)c1` (stereo not given) stands > 28.2 µM (inactive); under `O=C(NC(c1ccc(Cl)c(Cl)c1)c1nc(-c2ccccc2)no1)c1ccccc1` (stereo not given), > 28.2 µM (inactive); under `O=C(NC(c1ccc(Cl)cc1)c1nc(-c2cccc(Cl)c2)no1)c1cccc(Cl)c1` (stereo not given), > 28.2 µM (inactive).
In the case of `O=C(NC(c1ccc(Br)cc1)c1nc(-c2ccccc2)no1)c1ccc(Cl)c(Cl)c1` (stereo not given), the IC50 is > 28.2 µM (inactive).
The same measure, in the same setting: to `N#Cc1ccc(C(=O)NC(c2ccc(Cl)c(Cl)c2)c2nc(-c3ccccc3)no2)cc1` (stereo not given) belongs “inactive”; to `O=C(NC(c1ccc(Cl)c(Cl)c1)c1nc(-c2ccccc2)no1)c1ccc(Cl)c(Cl)c1` (stereo not given), > 28.2 µM (inactive).
`COc1ccc(C(=O)NC(c2ccccc2)c2nc(-c3ccccc3)no2)cc1` (stereo not given): the IC50 is > 28.2 µM (inactive).
Still for that read-out and setting: to `O=C(NC(c1ccc(Cl)cc1)c1nc(-c2ccccc2)no1)c1cccc(Cl)c1` (stereo not given) belongs > 28.2 µM (inactive); to `O=C(NC(c1ccccc1)c1nc(-c2ccccc2)no1)c1cccc(Cl)n1` (stereo not given), “inactive”; to `O=C(NC(c1ccc(Cl)c(Cl)c1)c1nc(-c2ccccc2)no1)c1ccc(Cl)cc1` (stereo not given), “inactive”.
For `O=C(NC(c1cccc(Cl)c1)c1nc(-c2ccccc2)no1)c1ccc(Cl)c(Cl)c1` (stereo not given), the IC50 was > 28.2 µM (inactive).
Same read-out and setting: under `O=C(NC(c1ccc(Cl)c(Cl)c1)c1nc(-c2ccccc2)no1)c1cccc(Cl)c1` (stereo not given) stands “inactive”.
Still for that read-out and setting: under `O=C(NC(c1nc(-c2ccccc2)no1)C1CCOCC1)c1ccc(Cl)c(Cl)c1` (stereo not given) stands > 28.2 µM (inactive).
In the case of `O=C(NC(c1cccc(Cl)c1)c1nc(-c2ccccc2)no1)c1cccc(Cl)c1` (stereo not given), the pIC50 is 5.29.
